Data reported in PubChem BioAssay AID2060625 (Molecular Pharmacology Branch, DTP, NCI, 2025).
Values joined by “and” are separate entries in the source; they are usually repeats but may differ in a detail not shown here. Equal entries are not always repeated.

Test system: 186277-243-T-J2-PDC spheroids with HUVEC/MSC, viability
Experiment: Anticancer human tumor 186277-243-T-J2-PDC patient-derived colon adenocarcinoma cell line growth inhibition [CLK]
Conditions: for viability, T/C: stronger effect = lower value; for IC50: curve of compound
Source text: A high-throughput screen of multi-cell type tumor spheroids was designed to identify active combinations of […] and targeted small molecules. Complex spheroids include a stromal component modeled by human endothelial cells (HUVEC) and fibroblasts modeled by human mesenchymal stem cells (MSCs). The concentration ranges selected for each drug and investigational agent were based upon clinically achievable concentrations if the clinical Cmax of the agent was known.
Compounds. The drugs and investigational agents: cirtuvivint (SM08502; NSC835563), CC-671 (NSC850746), vemurafenib (NSC761431), tapotoclax (NSC804041), sotorasib (NSC818433), adagrasib (NSC831453), MRTX-1133 (NSC836407), BAY2416964 (NSC825713), copanlisib (NSC816437), inavolisib (NSC800729), abemaciclib (NSC768073), osimertinib (NSC779217), entinostat (NSC756642), eltanexor (KPT-8602, NSC794443), venetoclax (NSC766270), ceralasertib (NSC777638), bortezomib (NSC756655), olaparib (NSC753686), talazoparib (NSC767125), alisertib (NSC759677), peposertib (NSC802822), gemcitabine (NSC613327), 5-fluorouracil (NSC19893), SN-38 (NSC673596), oxaliplatin (NSC266046), paclitaxel (NSC125973), and doxorubicin (NSC123127), were obtained from the National Cancer Institute (NCI) Developmental Therapeutics Program Chemical Repository. The FDA-approved anticancer drug set is available from the Developmental Therapeutics Program at https://dtp.cancer.gov/organization/dscb/obtaining/available plates.htm. […] The stock solutions were prepared in dimethyl sulfoxide (DMSO, Sigma-Aldrich, St. Louis, MO, cat. D2650), except for the platinum complexes which were prepared in saline (Quality Biological, Gaithersburg, MD, cat. 114-055-101), at 800-fold the tested concentration and stored at -70 degrees C prior to their use. All drugs and investigational agents were tested over a range starting from a high concentration at or near the clinical Cmax and decreasing in half-log increments. If the clinical Cmax for an agent had not been determined, the highest concentration tested was 10 microM.
Cell Culture. All cells were maintained in an incubator at 37 degrees C and 5% CO2 with 95% humidity. The PDC lines were cultured according to standard operating procedures established by the NCI PDMR. Briefly, all PDCs were thawed and cultured in Matrigel-coated flasks prepared with a working solution of 1X Ham's F-12 nutrient mix, without supplementation (Invitrogen, Waltham, MA, cat. 11765054), 100 U/mL penicillin-streptomycin (Invitrogen, cat. 15140122), and 2.5% Matrigel (Corning Inc., Corning, NY, cat. 354248) for the first three passages. The 947758-054-R-J2-PDC line was cultured in 6B/Colon 1A media, which includes advanced DMEM/F-12 (Thermo Fisher Scientific, cat. 12634028), 10 mM HEPES (Thermo Fisher Scientific, cat. 15630080), 1X GlutaMAX supplement (Thermo Fisher Scientific, cat. 35050061), 0.1 mg/mL primocin (InvivoGen, cat. ant-pm-2), 10% defined fetal bovine serum, heat inactivated (HyClone Laboratories Inc., cat. SH30070.03HI), 1.25 mM N-Acetyl-L-cysteine (Sigma-Aldrich, cat. A9165), 10 mM nicotinamide (Sigma-Aldrich, cat. N0636), 1X B-27 supplement (Thermo Fisher Scientific, cat. 17504044), 1X N-2 supplement (Thermo Fisher Scientific, cat. 17502048), and 10 microM Y-27632 dihydrochloride (Tocris Bioscience, cat. 1254). The 876862-298-R-J1-PDC was cultured in 6E media, which includes all 6B/Colon 1A media components plus 50% L-WRN conditioned media (ATCC, cat. CRL-3276), 50 ng/mL recombinant human EGF recombinant protein (hEGF; Thermo Fisher Scientific, cat. PHG0311), 10 ng/mL recombinant human fibroblast growth factor 10 (hGFG-10; PeproTech, cat. 100-26), 1 ng/mL recombinant human fibroblast growth factor 2 (hFGF-2; PeproTech, cat. 100-18B), and 1 µM prostaglandin E2 (PGE2; Tocris, cat. 2296). The 227483-062-R1-J1-PDC line was cultured in Panc media, containing all 6E components except hFGF-2, with the addition of 500 nM SB-431542 (Selleckchem, cat. S1067) and 10 nM gastrin (Tocris, cat. 3006). […]
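Also: compound exposure lasted seven days before readout.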
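For viability, T/C in this document: 100% = DMSO vehicle control wells.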

| Compound | viability, T/C (compound 0.0316 µM) | viability, T/C (compound 0.1 µM) | viability, T/C (compound 0.316 µM) | viability, T/C (compound 1 µM) | viability, T/C (compound 3.16 µM) | viability, T/C (compound 10 µM) | IC50 | viability, T/C (compound 0.000949 µM) | viability, T/C (compound 0.003 µM) | viability, T/C (compound 0.00949 µM) | viability, T/C (compound 0.03 µM) | viability, T/C (compound 0.0949 µM) | viability, T/C (compound 0.3 µM) |
| --- | --- | --- | --- | --- | --- | --- | --- | --- | --- | --- | --- | --- | --- |
| C#Cc1c(F)ccc2cc(O)cc(-c3ncc4c(N5CC6CCC(C5)N6)nc(OCC56CCCN5CC(F)C6)nc4c3F)c12 (stereo unspecified) | 95.5% and 101% | 73.5% and 89.7% | 69.2% and 120% | 32% and 60% | 20.9% and 34.8% | 14.7% and 21.7% | 538 nM and 1440 nM | – | – | – | – | – | – |
| C=C(F)C(=O)N1CCN(c2nc(OCC3CCCN3C)nc3c2CCN(c2cccc4cccc(Cl)c24)C3)CC1CC#N (stereo unspecified) | 79% and 94.1% | 82.2% and 88.8% | 93% and 82.2% | 83.4% and 89.4% | 101% and 109% | – | 5270 nM and 7510 nM | – | – | – | – | – | – |
| C=CC(=O)N1CCN(c2nc(=O)n(-c3c(C)ccnc3C(C)C)c3nc(-c4c(O)cccc4F)c(F)cc23)C(C)C1 (stereo unspecified) | 103% and 87.6% | 91.4% and 96.3% | 97.5% and 90.2% | 80.2% and 105% | 107% and 105% | 95.2% and 98.2% | > 10000 nM | – | – | – | – | – | – |
| C=CC(=O)Nc1cc(Nc2nccc(-c3cn(C)c4ccccc34)n2)c(OC)cc1N(C)CCN(C)C | – | – | – | – | – | – | > 300 nM | 84.2% and 100% | 98.2% and 101% | 84.3% and 112% | 82.3% and 97.6% | 83.6% and 116% | 87.2% and 95.1% |
| CC(=O)O[C@H]1C(=O)[C@@]2(C)[C@H]([C@H](OC(=O)c3ccccc3)[C@]3(O)C[C@H](OC(=O)[C@H](O)[C@@H](NC(=O)c4ccccc4)c4ccccc4)C(C)=C1C3(C)C)[C@]1(OC(C)=O)CO[C@@H]1C[C@@H]2O | 25.2% and 16.5% | 12.1% and 8.36% | 11.6% and 7.98% | 10.8% and 6.74% | 8.76% and 8.77% | 10.4% and 7.1% | < 31.6 nM | – | – | – | – | – | – |
| CC(C)CC(NC(=O)C(Cc1ccccc1)NC(=O)c1cnccn1)B(O)O (stereo unspecified) | – | – | – | – | – | – | 4.44 nM and 3.22 nM | 95.9% and 106% | 75.5% and 53.2% | 0.47% and 2.37% | 0.24% and 0.94% | 0.79% and 3.7% | 0.71% and 0.52% |
| CC(CO)NC(=O)c1cc(-c2ccc(Cl)cc2)nn(-c2cnn(C)c2)c1=O (stereo unspecified) | 84.6% and 120% | 80.5% and 91.3% | 95.9% and 96.8% | 81% and 88.2% | 87.7% and 101% | 115% and 117% | > 10000 nM | – | – | – | – | – | – |
| CC(Nc1ccc2c(c1)OCCn1cc(N3C(=O)OCC3C(F)F)nc1-2)C(N)=O (stereo unspecified) | 96.2% | 103% and 104% | 80% and 80.6% | 65.2% and 58.1% | 58.7% and 53.7% | 49.9% and 37.6% | > 10000 nM and 2380 nM | – | – | – | – | – | – |
| CC1(C)CCC(CN2CCN(c3ccc(C(=O)NS(=O)(=O)c4ccc(NCC5CCOCC5)c([N+](=O)[O-])c4)c(Oc4cnc5[nH]ccc5c4)c3)CC2)=C(c2ccc(Cl)cc2)C1 | 94.3% and 88.2% | 85.8% and 90.3% | 97% and 104% | 86.5% and 99.3% | 106% and 110% | 10.5% and 10% | 5800 nM and 5950 nM | – | – | – | – | – | – |
| CC1COCCN1c1cc(C2(S(C)(=N)=O)CC2)nc(-c2ccnc3[nH]ccc23)n1 (stereo unspecified) | 103% and 82.6% | 85.5% and 88% | 96.9% and 95% | 122% and 103% | 41.2% and 34% | 15% and 13.5% | 2680 nM and 2310 nM | – | – | – | – | – | – |
| CCCS(=O)(=O)Nc1ccc(F)c(C(=O)c2c[nH]c3ncc(-c4ccc(Cl)cc4)cc23)c1F | 97.7% and 105% | 87.2% and 89.4% | 113% and 109% | 104% and 88.5% | 120% and 94% | 82.3% and 88% | > 10000 nM | – | – | – | – | – | – |
